Source: the supplement of paper PMC10883282
± gives the standard deviation of the averaged measurements.

System: SW1353
Experiment: relative viability vs DMSO control (72 h) (fraction); higher = more viable cells
Method in brief: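 Densities for seeding sarcoma cell lines into 384-well plates were set to give 80–90% confluence. After 24 h, 2.5 µl of serially diluted compound from source plates of 10 mM to 0.0002 mM went in, and plates stayed 72 h at 37 °C in 5% CO2 with 0.1% DMSO vehicle and a 5 µM positive control. Percent growth from ATPLite readings, averaged over up to triplicate wells, served as relative viability, rescaled so 1 means full and 0 means none.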

SMILES | relative viability (0.00017 µM) | relative viability (0.00051 µM) | relative viability (0.00152 µM) | relative viability (0.00457 µM) | relative viability (0.01372 µM) | relative viability (0.04115 µM) | relative viability (0.1235 µM) | relative viability (0.3704 µM) | relative viability (1.111 µM) | relative viability (3.333 µM) | relative viability (10 µM)
CCN1CCN(Cc2ccc(Nc3ncc(F)c(-c4cc(F)c5nc(C)n(C(C)C)c5c4)n3)nc2)CC1 [Abemaciclib] | 0.958 ± 0.031 | 0.974 ± 0.017 | 0.976 ± 0.021 | 0.944 ± 0.011 | 0.9333 ± 0.0082 | 0.884 ± 0.033 | 0.778 ± 0.023 | 0.74 ± 0.021 | 0.699 ± 0.024 | 0.73 ± 0.046 | 0.721 ± 0.047
CC(C)NC(=O)C1CCC(n2c(NC(=O)c3ccc(F)cc3)nc3ccc(CN4CCC(C(C)(C)O)CC4)cc32)CC1 (stereo not drawn) [Belizatinib] | 1.02 ± 0.03 | 0.987 ± 0.045 | 1.02 ± 0.014 | 1.05 ± 0.062 | 1.03 ± 0.015 | 1.03 ± 0.03 | 0.944 ± 0.012 | 0.929 ± 0.022 | 0.808 ± 0.03 | 0.648 ± 0.021 | 0.441 ± 0.024
CC[C@H](Nc1ncnc2[nH]cnc12)c1nc2cccc(F)c2c(=O)n1-c1ccccc1 [Idelalisib] | 1.06 ± 0.038 | 1.05 ± 0.053 | 1.04 ± 0.048 | 1.05 ± 0.02 | 1.01 ± 0.043 | 0.969 ± 0.016 | 0.952 ± 0.045 | 0.931 ± 0.043 | 0.831 ± 0.042 | 0.752 ± 0.011 | 0.573 ± 0.027
CC(C)(C)c1cc(NC(=O)Nc2ccc(-c3cn4c(n3)sc3cc(OCCN5CCOCC5)ccc34)cc2)no1 [Quizartinib] | 1.02 ± 0.03 | 1.02 ± 0.047 | 1.02 ± 0.057 | 1.03 ± 0.047 | 1.01 ± 0.059 | 1.03 ± 0.043 | 1.02 ± 0.046 | 1.01 ± 0.031 | 0.965 ± 0.044 | 0.874 ± 0.02 | 0.981 ± 0.035
Cc1cnc(Nc2ccc(OCCN3CCCC3)cc2)nc1Nc1cccc(S(=O)(=O)NC(C)(C)C)c1 [Fedratinib] | 1.058 ± 0.01 | 1.02 ± 0.05 | 1.03 ± 0.038 | 1.02 ± 0.016 | 0.987 ± 0.048 | 1 ± 0.046 | 0.915 ± 0.018 | 0.764 ± 0.036 | 0.533 ± 0.022 | 0.184 ± 0.0053 | 0.00437 ± 0.0012
CC1(C)CNc2cc(NC(=O)c3cccnc3NCc3ccncc3)ccc21 [Motesanib] | 0.993 ± 0.037 | 1.01 ± 0.013 | 1.02 ± 0.011 | 1 ± 0.018 | 0.997 ± 0.03 | 1.01 ± 0.012 | 0.963 ± 0.031 | 0.964 ± 0.016 | 0.977 ± 0.025 | 0.935 ± 0.023 | 0.898 ± 0.025
Nc1cc(C(F)(F)F)c(-c2cc(N3CCOCC3)nc(N3CCOCC3)n2)cn1 [Buparlisib] | 0.984 ± 0.018 | 0.956 ± 0.011 | 0.971 ± 0.011 | 0.982 ± 0.042 | 0.966 ± 0.059 | 0.9295 ± 0.0043 | 0.889 ± 0.03 | 0.835 ± 0.018 | 0.654 ± 0.0079 | 0.381 ± 0.015 | 0.266 ± 0.0047
Cc1cc(C)c(/C=C2\C(=O)Nc3ccccc32)[nH]1 [Semaxanib] | 0.919 ± 0.019 | 0.8637 ± 0.004 | 0.898 ± 0.032 | 0.897 ± 0.043 | 0.865 ± 0.022 | 0.895 ± 0.052 | 0.892 ± 0.016 | 0.886 ± 0.017 | 0.872 ± 0.04 | 0.818 ± 0.022 | 0.788 ± 0.032
CCc1cc2c(cc1N1CCC(N3CCOCC3)CC1)C(C)(C)c1[nH]c3cc(C#N)ccc3c1C2=O [Alectinib] | 0.987 ± 0.02 | 0.993 ± 0.027 | 1.01 ± 0.019 | 1.002 ± 0.0077 | 0.996 ± 0.038 | 1.04 ± 0.012 | 0.988 ± 0.057 | 1.07 ± 0.032 | 0.9953 ± 0.0051 | 1.06 ± 0.058 | 1.14 ± 0.016
Cn1cnc2c(F)c(Nc3ccc(Br)cc3F)c(C(=O)NOCCO)cc21 [Binimetinib] | 1.06 ± 0.021 | 1.08 ± 0.032 | 1.04 ± 0.019 | 0.993 ± 0.018 | 0.981 ± 0.038 | 0.889 ± 0.065 | 0.841 ± 0.092 | 0.832 ± 0.019 | 0.806 ± 0.019 | 0.739 ± 0.026 | 0.661 ± 0.013
C=CC(=O)Nc1cccc(Oc2nc(Nc3ccc(N4CCN(C)CC4)cc3)nc3ccsc23)c1 [Olmutinib] | 1.03 ± 0.048 | 1.06 ± 0.059 | 1.04 ± 0.013 | 1.04 ± 0.048 | 1.03 ± 0.038 | 1.02 ± 0.03 | 0.997 ± 0.031 | 0.95 ± 0.086 | 0.857 ± 0.021 | 0.755 ± 0.012 | 0.104 ± 0.0062
CN1CCN(c2ccc3nc(-c4c(N)c5c(F)cccc5[nH]c4=O)[nH]c3c2)CC1 [Dovitinib] | 1.08 ± 0.036 | 1.09 ± 0.015 | 1.04 ± 0.04 | 1.07 ± 0.019 | 1.06 ± 0.014 | 1.01 ± 0.03 | 1.01 ± 0.048 | 0.959 ± 0.036 | 0.749 ± 0.017 | 0.53 ± 0.043 | 0.06 ± 0.0053
O=C(Cc1ccc(-c2ccc(OCCN3CCOCC3)cc2)cn1)NCc1ccccc1 [KX2-391] | 1.06 ± 0.023 | 1.09 ± 0.031 | 1.02 ± 0.014 | 1.01 ± 0.035 | 0.962 ± 0.01 | 0.952 ± 0.011 | 0.607 ± 0.037 | 0.446 ± 0.024 | 0.425 ± 0.018 | 0.462 ± 0.014 | 0.458 ± 0.019
C[C@@H]1COCCN1c1cc(-c2ccnn2C)c2ccnc(-c3ccn[nH]3)c2n1 | 0.988 ± 0.026 | 0.94 ± 0.015 | 0.974 ± 0.035 | 0.978 ± 0.065 | 0.933 ± 0.059 | 0.872 ± 0.028 | 0.769 ± 0.026 | 0.624 ± 0.027 | 0.507 ± 0.0081 | 0.41 ± 0.005 | 0.392 ± 0.014
CNC(=O)c1cc(Oc2ccc(NC(=O)Nc3ccc(Cl)c(C(F)(F)F)c3)c(F)c2)ccn1 [Regorafenib] | 1.11 ± 0.029 | 1.05 ± 0.05 | 1.07 ± 0.017 | 1.08 ± 0.021 | 1.04 ± 0.096 | 1.01 ± 0.043 | 1.08 ± 0.044 | 0.996 ± 0.07 | 0.978 ± 0.047 | 0.919 ± 0.036 | 0.555 ± 0.02
Cc1ccc(NC(=O)c2ccc(CN3CCN(C)CC3)cc2)cc1Nc1nc(-c2cccnc2)cs1 [Masitinib] | 1.03 ± 0.017 | 0.998 ± 0.012 | 0.986 ± 0.023 | 0.9886 ± 0.0079 | 0.989 ± 0.014 | 1.018 ± 0.0045 | 0.925 ± 0.006 | 0.86 ± 0.049 | 0.755 ± 0.047 | 0.478 ± 0.026 | 0.032 ± 0.0052
CNC(=O)c1ccc(-c2cnc3ncc(Cc4ccc5ncccc5c4)n3n2)cc1F [Capmatinib] | 0.958 ± 0.038 | 0.979 ± 0.033 | 0.973 ± 0.029 | 0.986 ± 0.063 | 0.974 ± 0.019 | 0.964 ± 0.049 | 1.01 ± 0.036 | 0.98 ± 0.044 | 1.05 ± 0.025 | 1.07 ± 0.011 | 1.03 ± 0.018
CCCS(=O)(=O)Nc1ccc(F)c(C(=O)c2c[nH]c3ncc(-c4ccc(Cl)cc4)cc23)c1F [Vemurafenib] | 0.958 ± 0.033 | 0.979 ± 0.055 | 0.965 ± 0.038 | 0.954 ± 0.052 | 1.01 ± 0.011 | 0.993 ± 0.022 | 0.949 ± 0.032 | 0.981 ± 0.031 | 0.925 ± 0.015 | 0.703 ± 0.024 | 0.567 ± 0.14
